US11554123B2, “Compositions and methods for reactivating latent HIV-1 infections” (Saint Joseph's University, priority 2017, dated 2023)
Values joined by “and” are separate entries in the source; they are usually repeats but may differ in a detail not shown here. Equal entries are not always repeated. “Also recorded” adds a separate entry of the source. Where two headings read alike, the source gives them in different places.

Key:
Format in all cases: cell-based
[1] = test system: H3K9ac at the integrated HIV-1 long terminal repeat (LTR); experiment: ChIP for H3K9ac at integrated HIV-1 LTR in TZMbl cells; settings: 48 h; for H3K9ac at the HIV-1 LTR versus SAHA alone (in words): 50 μM Ro5-3335, 10 μM Alprazolam or 10 μM Clonazepam with 5 μM SAHA
Protocol: (§1) TZMbl cells were cultured with benzodiazepines for 48 hours before chromatin immunoprecipitation analysis. Following treatment, cells were processed for chromatin immunoprecipitation using the Pierce Agarose ChIP Kit (Fisher Scientific) using commercially available antibodies against histone H3 lysine 9 acetylation, STATS, and CBP/P300. Degree of occupancy at the integrated HIV-1 LTR was determined by qPCR using HIV-1 LTR specific primers run on a BioRad CFX384 qPCR machine using Sybr Green methodology.
In order to test the changes driven by these compounds, chromatin immunoprecipitation (ChIP) assays were performed to examine the presence of various proteins and modifications at the integrated HIV-1 long terminal repeat (LTR). TZMbl cells were treated for 48 hours with 50 μM Ro5-3335, 10 μM Alprazolam and 10 μM Clonazepam with or without 5 μM SAHA Acetylation of histone 3 at lysine 9 (H3K9ac) was first examined (FIG. 3B). […] None of the benzodiazepines were able to alter H3K9ac when used alone.

HIV-1 Tat = molecular target: T1, HIV-1 Tat (Human immunodeficiency virus type 1 group M subtype B, UniProt P04608); settings: TZMbl cells transfected with Tat plasmid, 24 h treatment, FIG. 3E
T1 construct: expressed in transfected cells; host or cells: TZMbl cells
T1 sequence (P04608 whole entry): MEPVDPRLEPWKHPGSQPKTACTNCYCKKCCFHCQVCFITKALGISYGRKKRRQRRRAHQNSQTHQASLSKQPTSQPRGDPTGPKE

[2] = test system: latent HIV-1 in JLat10.6 cell line model of T-cell latency; settings: for percentage of GFP+ live cells: 10 μM benzodiazepine used independently, 48 h, FIG. 1A, DMSO background 2.8%; for maximal effect in dose dependent reactivation (in words): compared with Alprazolam; for activation compared with the other tested benzodiazepines (in words): in the presence or absence of SAHA
CBP/P300 = experiment: ChIP for CBP/P300 at integrated HIV-1 LTR in TZMbl cells; settings: for recruitment of CBP/P300 to the HIV-1 LTR: addition of 50 μM Ro5-3335 or 10 μM Alprazolam, 48 h, FIG. 3D
Protocol: as §1
Therefore, ChIP was performed for STATS to determine if benzodiazepine treatment might increase the recruitment of STATS above SAHA treatment (FIG. 3C). All three benzodiazepines were capable of driving recruitment of STATS to the promoter, and further recruitment was seen when used in combination with SAHA. STATS is capable of recruiting the histone acetyl transferase CBP/P300 that acetylates histone 3 at lysine 27, a residue that is not affected by SAHA. […] Addition of both Ro5-3335 and Alprazolam induced recruitment of CBP/P300 to the HIV-1 LTR (by 3 and 7 fold respectively).

IL-17 promoter = IL-17 promoter luciferase reporter assay in 293T cells
[3] = test system: acetylated histone 3 at lysine 9 (H3K9); experiment: NUCLEO-M imaging of acetylated H3K9 in isolated nuclei; settings: FIG. 3A
Protocol: Transcriptionally competent nuclei were isolated from TZM-bl cells by chemical lysis and stored following manufacturer's recommendations (Nuclei Isolation Kit: Nuclei EZ Prep, Sigma-Aldrich, Nuc-101). Nuclei were stained for 1 hour on ice in 5% FBS/PBS solution containing primary antibodies. Nuclei were washed twice in 5% FBS/PBS and stained for 1 hour on ice with appropriate secondary antibodies conjugated with fluorescent dyes. Nuclei were finally washed twice in 5% FBS/PBS and resuspended in the storage buffer provided by the kit (Nuclei Isolation Kit: Nuclei EZ Prep, Sigma-Aldrich, Nuc-101).
Isolated nuclei and TZM-bl cells seeded on a chambered coverglass (NUNC® LAB-TEK® Chambered Coverglass, Thermo Fisher) were imaged with a Zeiss AXIOVERT® microscope with a Zeiss alpha PLAN-FLUAR® 100×, 1.45 N.A., oil objective and a spinning disk confocal scan head (Yokogawa CSU-X1). A 488 nm laser source with 488-25 nm, 617-73 nm and 692-40 nm emission filters were used for the illumination of Alexa Fluor® 488 dye (Thermo Fisher) or SYTO® RNA SELECT® Green Fluorescent cell Stain (Thermo Fisher), and PerCP-Cy5.5 (BD Biosciences) respectively. A 561 nm laser source with 568-25 nm emission filters was used for illumination of ALEXA FLUOR® 555 dye (Thermo Fisher). Digital images were captured sequentially by a high-speed EM-CCD camera with 100 ms exposure time (Photometrics EVOLVE® 512). […]

RUNX1 responsive genes = experiment: RUNX responsive gene expression (qPCR) in PBMCs from HIV-1 patients; settings: PBMCs of three HIV-1 patients, 48 h
Protocol: (§2) To evaluate the ability of Alprazolam to reactivate latent cells from patients we obtained PBMCs from two HIV-1 patients who had been suppressed on therapy for greater than 6 months. 10×10^6 PBMCs were divided between three conditions: DMSO control, 50 μM Ro5-3335 and 10 μm Alprazolam. PBMCs were cultured in RPMI with 10% FBS and the given drugs for twenty-four hours. RNA was extracted from the cells and used for RTqPCR to detect HIV-1 Gag mRNA. RNA was extracted using Trizol reagent (Invitrogen) following manufacturer's protocol. Following reverse transcription, the samples were diluted 1:50, and 2.5 microliters were used for quantitative PCR in a BioRad CFX384 qPCR machine. All mRNA analyses were normalized to GAPDH. Nucleic acid amplification was tracked by SYBR Green method.
Next, expression of several RUNX responsive genes in PBMCs in response to Ro5-3335 and Alprazolam was examined. Samples from three HIV-1 patients were treated with Alprazolam or Ro5-3335 for 48 hours. RNA was harvested using Trizol and cDNA was synthesized using RT reaction. qPCR was performed using primers for seven known RUNX1 responsive genes: APOBEC3C, APOBEC3G, Tbet, RUNX1 d, IL-2, IL7R and STAH (FIG. 5).

HIV-1 Gag mRNA = HIV-1 Gag mRNA (RTqPCR) in ex vivo treated PBMCs from HIV-1 patients; settings: 24 h; for increase in HIV-1 Gag RNA: 10 μm Alprazolam
Protocol: as §2
In order to evaluate the ability of Alprazolam to reactivate latent cells from patients, PBMCs were obtained from two HIV-1 patients who had been suppressed on therapy for greater than 6 months. 10×10^6 PBMCs were divided between three conditions: DMSO control, 50 μM Ro5-3335 and 10 μm Alprazolam. PBMCs were cultured in RPMI with 10% FBS and the given drugs for twenty-four hours. RNA was extracted from the cells and used for RTqPCR to detected HIV-1 Gag mRNA (FIG. 6). […] Treatment with Alprazolam produced detectable reactivation of HIV-1 transcripts.

[4] = test system: primary peripheral blood mononuclear cells (PBMCs) from healthy donors; experiment: T cell activation in primary PBMCs (CD69 flow cytometry); settings: 10 μM Alprazolam in combination with 0.5 μM SAHA, 24 h
Protocol: To investigate whether alprazolam is specifically activating HIV-1 or having general effect on T cell activation (CD4 and CD8), primary PBMC from two healthy donors were treated with 10 μM, 50 μM Alprazolam or Ro5-3335 respectively alone or in combination with 0.5 μM SAHA. Twenty-four hours after treatment, cells were stained using Zombie yellow live and dead staining and then stained for CD3, CD8, CD4, CD69, and then fixed for analysis by flow cytometry. AntiCD3/CD28 and PHA were included as a positive control. Samples were analyzed on a CYTEK® DxP12 flow cytometer followed by analysis using FLOWJO® v10 software (Treestar)
In order to investigate whether alprazolam was specifically activating HIV-1 or having a general effect on T cell activation (CD4 and CD8), primary peripheral blood mononuclear cells (PBMCs) from two healthy donors were treated with 10 μM Alprazolam or 50 μM Ro5-3335, both alone or in combination with 0.5 μM SAHA. Twenty-four hours after treatment, cells were stained using Zombie yellow live and dead staining, then stained for CD3, CD8, CD4, CD69, and then fixed for analysis by flow cytometry. AntiCD3/CD28 and PHA were included as a positive control (FIG. 2B).

JLat10.6 cells = experiment: JLat10.6 cell viability (live/dead staining); settings: 48 h, DMSO control 97%
Protocol: […] Forty-eight hours after treatment, cells were stained for live dead staining using Live/Dead Red stain (BD Biosciences). Viability was determined by fluorescent detection of the live dead stain using a CYTEK® DxP12 flow cytometer. Comparison to untreated cells was used to determine degree of cell viability.
To examine safety of the treatment and effect on T-cell activation, Jlat10.6 cells were treated with different benzodiazepines with and without SAHA. Forty-eight hours after incubation, cells were harvested and stained with red live/dead staining according to the manufacturer protocol (LIVE/DEAD® Fixable Red Dead Cell Stain Kit, ThermoFisher Scientific) (FIG. 2A). Trichostatin A, used as a positive control induced toxicity (68% viable).

O=C1CN=C(c2ccc[nH]2)c2cc(Cl)ccc2N1 [Ro5-3335]
H3K9ac at the HIV-1 LTR versus SAHA alone (in words) [1]: potentiation was not seen | luciferase expression driven by Tat (in words) (HIV-1 Tat): significantly suppressed luciferase expression; also recorded: significant suppression of Tat | activation of latent virus (in words) ([2]; Ro5-3335 by itself, without SAHA): did not activate the virus by itself | recruitment of CBP/P300 to the HIV-1 LTR (CBP/P300): 3 fold | IL-17 promoter activity (in words) (IL-17 promoter; all three conditions: alone, with SAHA, with RUNX1 overexpression): inhibited IL-17 promoter in a dose dependent fashion | acetylated H3K9 in the nuclei (in words) ([3]; Ro5-3335 and SAHA): further increased the acetylation; also recorded: increase in acetylated histone 3 at lysine 9 | expression of seven selected RUNX responsive genes (in words) (RUNX1 responsive genes): significantly altered the expression of five of the selected RUNX responsive genes | increase in HIV-1 transcripts (Gag mRNA) (HIV-1 Gag mRNA; 50 μM Ro5-3335 alone, two patients, versus DMSO control): 1.5 fold and 1.2 fold

CN1C(=O)CN=C(c2ccccc2F)c2cc([N+](=O)[O-])ccc21 [Flunitrazepam]
percentage of GFP+ live cells [2]: 9.1%

O=C1CN=C(c2ccccc2Cl)c2cc([N+](=O)[O-])ccc2N1 [Clonazepam]
H3K9ac at the HIV-1 LTR versus SAHA alone (in words) [1]: potentiation was not seen | maximal effect in dose dependent reactivation (in words) ([2]; alone, FIG. 1B): smaller maximal effect, but at lower doses

Cc1nnc2n1-c1ccc(Cl)cc1C(c1ccccc1)=NC2 [Alprazolam]
H3K9ac at the HIV-1 LTR versus SAHA alone (in words) [1]: further increased acetylation over SAHA alone | luciferase expression driven by Tat (in words) (HIV-1 Tat): additional activation beyond what was seen with Tat alone | percentage of GFP+ live cells [2]: 20.3% | GFP+ cells, dose dependent reactivation ([2]; alone, at 10 μM, FIG. 1B, DMSO control 2.8%): 25.5% | activation compared with the other tested benzodiazepines (in words) [2]: maximum activation | recruitment of CBP/P300 to the HIV-1 LTR (CBP/P300): 7 fold | IL-17 promoter luciferase activity (in words) (IL-17 promoter; RUNX1 over expression): increased luciferase activity | IL-17 promoter activity (in words) (IL-17 promoter; absence of SAHA or RUNX1 over expression, lowest dose 0.1 μM): statistically significant suppression | IL-17 promoter luciferase activity (in words) (IL-17 promoter; in the presence of SAHA): no effect on luciferase activity | T cell activation (in words) [4]: did not induce any significant T cell activation | T cell activation (in words) ([4]; listed as alprazolam): did not induce significant T-cell activation | increase in HIV-1 Gag RNA (HIV-1 Gag mRNA; Patient 1, versus DMSO control): 4.6 fold | increase in HIV-1 Gag RNA (HIV-1 Gag mRNA; Patient 2, versus DMSO control): 3.3 fold

O=C(O)C1N=C(c2ccccc2)c2cc(Cl)ccc2NC1=O (stereo not drawn) [Clorazepate]
luciferase expression driven by Tat (in words) (HIV-1 Tat): additional activation beyond what was seen with Tat alone | maximal effect in dose dependent reactivation (in words) ([2]; alone, FIG. 1B): smaller maximal effect, but at lower doses

O=C(CCCCCCC(=O)Nc1ccccc1)NO [SAHA, N-hydroxy-N′-phenyloctanediamide]
occupancy of H3K9ac at the promoter (in words) ([1]; 5 μM SAHA alone, compared to DMSO control): increased the occupancy of H3K9ac | viability (JLat10.6 cells; 0.5 μM SAHA): 94.6% | GFP+ cells ([2]; 0.5 uM SAHA alone, FIG. 1B): 5.9% | GFP+ cells ([2]; SAHA alone, FIG. 1A screen, DMSO 2.8%): 6.2% | recruitment of CBP/P300 (in words) (CBP/P300; SAHA alone): no increase in recruitment | IL-17 driven luciferase expression (in words) (IL-17 promoter; SAHA treatment compared to control): increased IL-17 driven luciferase expression | acetylated H3K9 in the nuclei (in words) ([3]; SAHA alone): increase in acetylated H3K9; also recorded: increase in acetylated histone 3 at lysine 9

CN1C(=O)CN=C(c2ccccc2)c2cc(Cl)ccc21 [Diazepam]
percentage of GFP+ live cells [2]: 12.4% | activation compared with the other tested benzodiazepines (in words) [2]: maximum activation

CC(/C=C/C(=O)NO)=C\[C@@H](C)C(=O)c1ccc(N(C)C)cc1 [Trichostatin A, [R-(E,E)]-7-[4-(Dimethylamino)phenyl]-N-hydroxy-4,6-dimethyl-7-oxo-2,4-heptadienamide]
viable cells (JLat10.6 cells; positive control): 68%
